# Experiments:
# Type in all cases: in vivo
# [1] = system: Diamond Back Moth (Plutella xylostella); assay: Insecticidal effect on diamond back moth (Test Example 1); details: 50 ppm; Chinese cabbage seedling with deposited eggs immersed about 30 seconds; 25° C.; six days after the immersion
# Source text: Insecticidal Effect on Diamond Back Moth (Plutella xylostella)
# Adult diamondback moths were released and allowed to oviposit on a Chinese cabbage seedling. Two days after the release, the seedling having the eggs deposited thereon was immersed for about 30 seconds in a liquid chemical prepared by diluting a preparation containing each compound listed in Table 1, 2 or 3 as an active ingredient to adjust the concentration to 50 ppm. After air-dryness, it was allowed to stand in a room thermostatted at 25° C. Six days after the immersion, the hatched insects were counted. The mortality was calculated according to the following equation and the insecticidal effect was judged according to the criterion shown below. The test was carried out with triplicate groups of 10 insects.
# [2] = system: Common Cutworm (Spodoptera Litura); assay: Insecticidal effect on common cutworm (Test Example 2); details: 50 ppm; cabbage leaf immersed about 30 seconds; second-instar larvae; 25° C.; eight days after the inoculation
# Source text: Insecticidal Effect on Common Cutworm (Spodoptera Litura)
# A piece of cabbage leaf (cultivar; Shikidori) was immersed for about 30 seconds in a liquid chemical prepared by diluting a preparation containing each compound listed in Table 1, 2 or 3 as an active ingredient to adjust the concentration to 50 ppm. After air-dryness, it was placed in a plastic Petri dish with a diameter of 9 cm and inoculated with second-instar larvae of common cutworm, after which the dish was closed and then allowed to stand in a room thermostatted at 25° C. Eight days after the inoculation, the dead and alive were counted. The mortality was calculated according to the following equation and the insecticidal effect was judged according to the criterion shown in Test Example 1. The test was carried out with triplicate groups of 10 insects. [formula]
# [3] = system: Smaller tea Tortrix (Adoxophyes sp.); assay: Insecticidal effect on smaller tea tortrix (Test Example 3); details: 50 ppm; tea leaf immersed 30 seconds; larvae; 25° C., humidity 70%; eight days after the inoculation
# Description: Insecticidal Effect on Smaller tea Tortrix (Adoxophyes sp.)
# A leaf of tea tree was immersed for 30 seconds in a liquid chemical containing each compound listed in Table 1, 2 or 3 as an active ingredient to adjust the concentration to 50 ppm. After air-dryness, the leaf was transferred to a plastic dish with a diameter of 9 cm and inoculated with larval smaller tea tortrix. Then, the leaf was allowed to stand in a room thermostatted at 25° C. at a humidity of 70%. Eight days after the inoculation, the dead and alive were counted, and the insecticidal effect was judged according to the same criterion as mentioned in Test Example 1. The test was carried out with triplicate groups of 10 insects.
SMILES,Test Example 1 insecticidal effect (mortality) [1],Test Example 2 insecticidal effect (mortality) [2],Test Example 3 insecticidal effect (mortality) [3]
CCN(CSC)C(=O)c1c(Cl)cccc1C(=O)Nc1ccc(C(F)(C(F)(F)F)C(F)(F)F)cc1C [2-8],A (100),A (100),
C[S+]([O-])CC(C)(C)NC(=O)c1c(Br)cccc1C(=O)Nc1ccc(OC(F)(F)F)cc1Cl (stereo not shown) [compound 232],A (100),A (100),
Cc1cc(OC(F)(F)F)ccc1NC(=O)c1cccc(Br)c1C(=O)NC(C)C[S+](C)[O-] (stereo not shown) [compound 87],A (100),C (89-80),
C[S+]([O-])CC(C)(C)NC(=O)c1c(Cl)cccc1C(=O)Nc1ccc(OC(F)(F)F)cc1Cl (stereo not shown) [compound 370],A (100),A (100),
CCN(CCSC)C(=O)c1c(F)cccc1C(=O)Nc1ccc(C(F)(C(F)(F)F)C(F)(F)F)cc1C [2-5],A (100),C (89-80),
CSCC(C)(C)NC(=O)c1c(Br)cccc1C(=O)Nc1ccc(OC(F)(F)F)cc1Cl [compound 227],A (100),A (100),
Cc1cc(OC(F)(F)F)ccc1NC(=O)c1ccc(Cl)c(Cl)c1C(=O)NC(C)C[S+](C)[O-] (stereo not shown) [compound 193],A (100),D (79-50),
Cc1cc(OC(F)(F)F)ccc1NC(=O)c1cccc(I)c1C(=O)NC(C)(C)C[S+](C)[O-] (stereo not shown) [compound 141],A (100),A (100),
CNC(=S)SCC(C)NC(=O)c1c(I)cccc1C(=O)Nc1ccc(C(F)(C(F)(F)F)C(F)(F)F)cc1C (stereo not shown) [compound 425],A (100),A (100),
CSCC(C)(C)NC(=O)c1c(F)cccc1C(=O)Nc1ccc(OC(F)(F)F)cc1Cl [compound 385],A (100),C (89-80),
Cc1cc(C(F)(F)C(F)(F)F)ccc1NC(=O)c1cccc([N+](=O)[O-])c1C(=O)NC(C)(C)CS(C)(=O)=O [compound 375],A (100),A (100),
Cc1cc(C(F)(F)F)ccc1NC(=O)c1cccc(Br)c1C(=O)NC(C)(C)C[S+](C)[O-] (stereo not shown) [compound 311],A (100),A (100),
COCC[S+]([O-])CC(C)NC(=O)c1c(I)cccc1C(=O)Nc1ccc(C(F)(C(F)(F)F)C(F)(F)F)cc1C (stereo not shown) [compound 340],A (100),A (100),
CC(C[S+](C)[O-])NC(=O)c1c(Cl)cccc1C(=O)Nc1ccc(OC(F)(F)F)cc1Cl (stereo not shown) [compound 381],A (100),A (100),
CCN(CSC)C(=O)c1c(Cl)cccc1C(=O)Nc1ccc(OC(F)(F)C(F)(F)F)cc1C [2-17],A (100),A (100),
Cc1cc(C(F)(F)C(F)(F)F)ccc1NC(=O)c1cccc(I)c1C(=O)N1CCSC1 [3-1],A (100),A (100),
Cc1cc(OC(F)(F)F)ccc1NC(=O)c1cccc(I)c1C(=O)NC(C)CSC(C)C (stereo not shown) [compound 5],A (100),A (100),
CSCC(C)NC(=O)c1cc(Cl)ccc1C(=O)Nc1ccc(C(F)(F)C(F)(F)F)cc1C (stereo not shown) [compound 43],A (100),,A (100)
CSCC(C)(C)NC(=O)c1c(I)cccc1C(=O)Nc1ccc(Oc2cccc(Cl)c2)cc1C [compound 474],A (100),,D (79-50)
CSCCNC(=O)c1c(I)cccc1C(=O)Nc1ccc(C(F)(F)C(F)(F)F)cc1C [compound 53],A (100),,A (100)
CSCC(C)NC(=O)c1c(I)cccc1C(=O)Nc1ccc(OC(F)(F)F)cc1 (stereo not shown) [compound 8],A (100),,C (89-80)

SMILES,Test Example 1 insecticidal effect (mortality) [1],Test Example 2 insecticidal effect (mortality) [2],Test Example 3 insecticidal effect (mortality) [3]
CCS(=O)(=O)CCCCC(C)NC(=O)c1c(I)cccc1C(=O)Nc1ccc(C(F)(F)C(F)(F)F)cc1C (stereo not shown) [compound 179],A (100),,A (100)
CCSCC(C)NC(=O)c1c(I)cccc1C(=O)Nc1ccc(Cl)cc1C (stereo not shown) [compound 24],A (100),,A (100)
CSCNC(=O)c1ccccc1C(=O)Nc1ccc(C(F)(C(F)(F)F)C(F)(F)F)cc1C [compound 298],A (100),,A (100)
Cc1cc(C(F)(F)C(F)(F)F)ccc1NC(=O)c1cccc(I)c1C(=O)NCCSC(C)C [compound 59],A (100),,A (100)
CCCN(CCSC)C(=O)c1c(F)cccc1C(=O)Nc1ccc(C(F)(C(F)(F)F)C(F)(F)F)cc1C [2-3],A (100),,A (100)
Cc1cc(C(F)(C(F)(F)F)C(F)(F)F)ccc1NC(=O)c1cccc([N+](=O)[O-])c1C(=O)NC(C)(C)C[S+](C)[O-] (stereo not shown) [compound 327],A (100),,A (100)
CSCC(NC(=O)c1c(I)cccc1C(=O)Nc1ccc(C(F)(C(F)(F)F)C(F)(F)F)cc1C)c1ccccc1 (stereo not shown) [compound 89],A (100),,A (100)
CSCC(C)NC(=O)c1c(I)cccc1C(=O)Nc1ccc([Si](C)(C)C)cc1C (stereo not shown) [compound 368],A (100),,A (100)
CSCC(C)NC(=O)c1ccccc1C(=O)Nc1ccc(C(F)(C(F)(F)F)C(F)(F)F)cc1C (stereo not shown) [Compound No. 16],A (100),,A (100)
CCSCCNC(=O)c1c(I)cccc1C(=O)Nc1ccc(C(F)(F)C(F)(F)F)cc1C [compound 72],A (100),,A (100)
Cc1cc(C(F)(C(F)(F)F)C(F)(F)F)ccc1NC(=O)c1cccc(I)c1C(=O)NC(C[S+](C)[O-])c1ccccc1 (stereo not shown) [compound 137],A (100),,A (100)
Cc1cc(C(F)(C(F)(F)F)C(F)(F)F)ccc1NC(=O)c1ccc2ccccc2c1C(=O)NC(C)CS(C)(=O)=O (stereo not shown) [compound 335],A (100),,D (79-50)
CSCC(C)(C)NC(=O)c1c(I)cccc1C(=O)Nc1ccc(C(=O)N(C)c2ccc(Cl)cc2)cc1C [compound 480],A (100),,A (100)
CSCC(C)(C)NC(=O)c1c(C(=O)Nc2ccc(Cl)cc2Cl)cccc1[N+](=O)[O-] [compound 326],A (100),,A (100)
CSCC(C)(C)NC(=O)c1c(I)cccc1C(=O)Nc1ccc(Cc2ccc(Cl)cc2)cc1C [compound 471],A (100),,A (100)
CSCC(C)NC(=O)c1ccc(Cl)c(Cl)c1C(=O)Nc1ccc(OC(F)(F)F)cc1C (stereo not shown) [compound 38],A (100),,A (100)
CCN(CCS(C)(=O)=O)C(=O)c1c(F)cccc1C(=O)Nc1ccc(C(F)(C(F)(F)F)C(F)(F)F)cc1C [2-12],A (100),,A (100)
CSCCSCC(C)NC(=O)c1c(I)cccc1C(=O)Nc1ccc(OC(F)(F)F)cc1C (stereo not shown) [compound 190],A (100),,A (100)
Cc1cc(C(F)(C(F)(F)F)C(F)(F)F)ccc1NC(=O)c1cccc(I)c1C(=O)NC(C)CSC(=O)N(C)C (stereo not shown) [compound 461],A (100),,D (79-50)
Cc1cc(C(F)(C(F)(F)F)C(F)(F)F)ccc1NC(=O)c1cccc(I)c1C(=O)NCCSC(C)C [compound 60],A (100),,A (100)

# Source: patent US6603044B1, “Phthalamide derivatives, or salt thereof agrohorticultural insecticide, and method for using the same” (Nihon Nohyaku Co., Ltd., priority 1998, dated 2003)
